The results in this text go back to paper PMC4901301 (Scientific Reports, 2016).

This test has as its system Mtb H37Rv thyX Tet-OFF conditional knockdown mutant. In kind it is cell-based, Mycobacterium tuberculosis.
In the case of `CCS(=O)(=O)N1CCN(C2=C(Cl)C(=O)c3ccccc3C2=O)CC1` [Compound F2], the “MIC90 shift (increase in potency) upon ThyX depletion” value is reported as ~ 2 fold. With `COc1ccc(CC2=CC(=O)c3ccccc3C2=O)cc1` [Compound D5] the entry was “no shift”. Turning to `CC(=O)N(C1=C(Cl)C(=O)c2ccccc2C1=O)c1cccc(F)c1` [Compound E10], the “MIC90 shift (increase in potency) upon ThyX depletion” value is recorded as “no shift”. As to `O=C1C(Cl)=C(N2CCN(C(=O)c3ccc(F)cc3)CC2)C(=O)c2ccccc21` [Compound F1], the “MIC90 shift (increase in potency) upon ThyX depletion” value is on record as “no shift”.

For the compound `O=C1C=C(Cc2ccc(F)cc2)C(=O)c2ccccc21` [Compound D4], the “MIC90 shift (increase in potency) upon ThyX depletion” value was “no shift”.
